Molecules are shown by their SMILES.

The IC50 is the point on the concentration scale where inhibition reaches its midpoint.

In assay [1] the target is Voltage-dependent N-type calcium channel subunit alpha-1B (Homo sapiens, UniProt Q00975). The experiment in a line: Inhibition of N-type calcium channels in IMR-32 human neuroblastoma cells. In kind it is cell-based.
Assay [2] deals with Mus musculus. The experiment in a line: Percentage of protection from audiogenic tonic seizures in DBA/2 mice after intravenous administration at a dose of 10 mg/kg. Type of assay: functional.
Assay [3] relates to Mus musculus. As to the kind of experiment: Percentage of protection from audiogenic tonic seizures in DBA/2 mice after intravenous administration at a dose of 30 mg/kg. Type of assay: functional.

Voltage-dependent N-type calcium channel subunit alpha-1B, sequence (Q00975 whole entry): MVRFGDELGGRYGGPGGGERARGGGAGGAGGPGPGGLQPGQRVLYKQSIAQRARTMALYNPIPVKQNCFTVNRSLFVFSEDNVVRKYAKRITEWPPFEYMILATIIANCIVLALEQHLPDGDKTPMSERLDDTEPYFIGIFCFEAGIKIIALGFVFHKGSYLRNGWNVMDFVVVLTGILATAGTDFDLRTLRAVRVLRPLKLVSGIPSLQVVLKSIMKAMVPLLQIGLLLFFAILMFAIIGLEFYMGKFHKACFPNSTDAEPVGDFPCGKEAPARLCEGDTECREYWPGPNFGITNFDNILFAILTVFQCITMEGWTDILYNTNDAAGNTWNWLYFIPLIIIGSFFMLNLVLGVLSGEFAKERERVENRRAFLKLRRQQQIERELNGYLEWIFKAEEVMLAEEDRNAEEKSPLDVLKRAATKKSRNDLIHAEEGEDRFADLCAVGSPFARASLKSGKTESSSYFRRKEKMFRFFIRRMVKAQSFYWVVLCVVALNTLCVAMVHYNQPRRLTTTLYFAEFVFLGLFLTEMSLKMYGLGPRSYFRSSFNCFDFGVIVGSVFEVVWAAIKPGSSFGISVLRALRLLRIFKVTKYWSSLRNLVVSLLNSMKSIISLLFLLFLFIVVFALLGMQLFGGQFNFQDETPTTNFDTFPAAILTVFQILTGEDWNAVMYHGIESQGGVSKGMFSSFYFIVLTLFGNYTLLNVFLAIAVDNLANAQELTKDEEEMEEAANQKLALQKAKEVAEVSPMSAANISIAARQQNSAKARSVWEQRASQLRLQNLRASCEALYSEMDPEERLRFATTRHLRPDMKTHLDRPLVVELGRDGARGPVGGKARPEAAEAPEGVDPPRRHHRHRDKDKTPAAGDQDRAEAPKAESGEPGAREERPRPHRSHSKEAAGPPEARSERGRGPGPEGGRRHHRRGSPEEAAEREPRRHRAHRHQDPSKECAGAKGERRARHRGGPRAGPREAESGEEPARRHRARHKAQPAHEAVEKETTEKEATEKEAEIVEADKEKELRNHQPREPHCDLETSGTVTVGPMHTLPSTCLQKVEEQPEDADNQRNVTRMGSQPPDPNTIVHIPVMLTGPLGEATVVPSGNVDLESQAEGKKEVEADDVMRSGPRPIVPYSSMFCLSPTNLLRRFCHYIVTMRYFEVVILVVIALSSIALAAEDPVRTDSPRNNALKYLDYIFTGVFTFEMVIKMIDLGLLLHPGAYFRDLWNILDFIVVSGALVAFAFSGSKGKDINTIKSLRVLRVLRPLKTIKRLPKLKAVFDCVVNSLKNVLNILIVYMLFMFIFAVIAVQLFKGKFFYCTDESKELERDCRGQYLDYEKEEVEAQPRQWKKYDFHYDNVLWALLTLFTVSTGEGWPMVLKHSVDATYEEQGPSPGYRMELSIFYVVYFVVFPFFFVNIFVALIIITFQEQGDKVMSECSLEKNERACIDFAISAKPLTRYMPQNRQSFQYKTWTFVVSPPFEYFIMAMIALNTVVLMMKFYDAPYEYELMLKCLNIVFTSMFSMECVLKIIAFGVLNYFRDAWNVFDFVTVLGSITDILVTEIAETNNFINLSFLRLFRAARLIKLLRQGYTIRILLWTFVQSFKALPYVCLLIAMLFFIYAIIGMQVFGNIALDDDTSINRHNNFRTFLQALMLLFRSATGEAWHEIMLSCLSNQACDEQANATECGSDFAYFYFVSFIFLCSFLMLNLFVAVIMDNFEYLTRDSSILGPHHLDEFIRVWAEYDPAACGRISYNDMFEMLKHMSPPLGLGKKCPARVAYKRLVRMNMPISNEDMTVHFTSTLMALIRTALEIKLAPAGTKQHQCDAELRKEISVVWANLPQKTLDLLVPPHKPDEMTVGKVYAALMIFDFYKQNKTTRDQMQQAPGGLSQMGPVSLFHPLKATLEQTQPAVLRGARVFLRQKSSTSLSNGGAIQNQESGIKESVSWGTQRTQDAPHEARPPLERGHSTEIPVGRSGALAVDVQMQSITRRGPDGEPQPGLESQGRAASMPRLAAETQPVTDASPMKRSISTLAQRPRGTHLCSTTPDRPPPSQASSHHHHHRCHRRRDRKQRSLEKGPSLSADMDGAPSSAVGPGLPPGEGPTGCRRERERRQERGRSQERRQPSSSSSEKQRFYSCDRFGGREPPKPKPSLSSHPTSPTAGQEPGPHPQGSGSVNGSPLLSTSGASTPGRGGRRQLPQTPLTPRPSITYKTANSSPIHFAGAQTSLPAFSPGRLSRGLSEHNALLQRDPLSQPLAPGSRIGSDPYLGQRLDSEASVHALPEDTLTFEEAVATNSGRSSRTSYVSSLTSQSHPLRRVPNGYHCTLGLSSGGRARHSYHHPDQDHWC

`CC(C)C[C@@H](C(=O)N[C@@H](Cc1ccc(OC(=O)c2ccccc2)cc1)C(=O)NC(C)(C)C)N(C)Cc1ccc(O)cc1`: the IC50 in assay [1] stood at 1000 nM.
Same read-out and setting: to `CC(C)C[C@@H](C(=O)N[C@@H](Cc1ccc(OC(=O)c2ccccc2)cc1)C(=O)NC(C)(C)C)N(C)Cc1ccc(Br)cc1` belongs 130 nM.
Turning to `COc1ccc(CN(C)[C@@H](CC(C)C)C(=O)N[C@@H](Cc2ccc(OC(=O)c3ccccc3)cc2)C(=O)NC(C)(C)C)cc1`, the Protection with Mus musculus [2] is reported as 40%; with Mus musculus [3], 100%. Further, in assay [1], the IC50 came to 500 nM.
For the compound `CC(C)C[C@@H](C(=O)N[C@@H](Cc1ccc(OC(=O)c2ccccc2)cc1)C(=O)NC(C)(C)C)N(C)Cc1ccccc1Cl`, the IC50 in assay [1] is 560 nM.
The same measure, in the same setting: next, `CC(C)C[C@@H](C(=O)N[C@@H](Cc1ccc(OC(=O)c2ccccc2)cc1)C(=O)NC(C)(C)C)N(C)CCCc1ccccc1`: 1900 nM.
As to `CC(C)C[C@@H](C(=O)N[C@@H](Cc1ccc(OC(=O)c2ccccc2)cc1)C(=O)NC(C)(C)C)N(C)CC1CCCCC1`, the values for the Protection in the assay on Mus musculus [2] and in the assay on Mus musculus [3] were 20% and 100%, respectively. In addition, the IC50 in assay [1] came out at 680 nM.
Take `CC(C)C[C@@H](C(=O)N[C@@H](Cc1ccc(OC(=O)c2ccccc2)cc1)C(=O)NC(C)(C)C)N(C)Cc1ccc(Cl)cc1`: the IC50 in assay [1] amounted to 230 nM.
On the same count and under the same terms, next, `CC(C)C[C@@H](C(=O)N[C@@H](Cc1ccc(OC(=O)c2ccccc2)cc1)C(=O)NC(C)(C)C)N(C)Cc1cccnc1`: 1700 nM; `CC(C)C[C@@H](C(=O)N[C@@H](Cc1ccc(OC(=O)c2ccccc2)cc1)C(=O)NC(C)(C)C)N(C)Cc1cccc(Cl)c1`: 1000 nM; `CC(C)C[C@@H](C(=O)N[C@@H](Cc1ccc(OC(=O)c2ccccc2)cc1)C(=O)NC(C)(C)C)N(C)CCc1ccccc1`: 1700 nM.
Take `CC(C)C[C@@H](C(=O)N[C@@H](Cc1ccc(OC(=O)c2ccccc2)cc1)C(=O)NC(C)(C)C)N(C)Cc1ccc(N(C)C)cc1`: the Protection in the assay with Mus musculus [3] was 80%. For the same compound, the IC50 in assay [1] came out at 280 nM.
As to `CC(C)C[C@@H](C(=O)N[C@@H](Cc1ccc(OC(=O)c2ccccc2)cc1)C(=O)NC(C)(C)C)N(C)Cc1ccco1`, in the assay with Mus musculus [3], the Protection was 60%. The IC50 in assay [1] worked out at 1600 nM.
`CC(C)C[C@@H](C(=O)N[C@@H](Cc1ccc(OC(=O)c2ccccc2)cc1)C(=O)NC(C)(C)C)N(C)Cc1ccc(C(C)(C)C)cc1`: the Protection with Mus musculus [3] is given as 60%. The IC50 in assay [1] is 36 nM.
Regarding `CC(C)C[C@@H](C(=O)N[C@@H](Cc1ccc(OC(=O)c2ccccc2)cc1)C(=O)NC(C)(C)C)N(C)Cc1ccccc1`, the IC50 in assay [1] worked out at 360 nM.

These data come from ChEMBL document CHEMBL1131814, “Structure-activity relationship of N-methyl-N-aralkyl-peptidylamines as novel N-type calcium channel blockers” (Bioorg Med Chem Lett, 1999).
